# Laboratory results from ChEMBL document CHEMBL1687752, “Impact of antifungal prophylaxis on colonization and azole susceptibility of Candida species” (2009).
# System: Nakaseomyces glabratus
# Experiment: Ratio of URA3 gene expression in Candida glabrata isolated from patient 975 receiving antifungal drug to URA3 gene expression in Candida glabrata isolated from patient 975 by RT-PCR analysis
# Format: functional
compound,measurement,value
CC[C@@H]([C@H](C)O)n1ncn(-c2ccc(N3CCN(c4ccc(OC[C@@H]5CO[C@@](Cn6cncn6)(c6ccc(F)cc6F)C5)cc4)CC3)cc2)c1=O [POSACONAZOLE],fold change (FC),1.2
